From patent publication US20250186437A1, “CARBOLINE COMPOUNDS AND USE THEREOF” (PTC Therapeutics, Inc., priority 2021, published 2025)

What was measured:
MOLM-13 cells [1] = test: MOLM-13 Uridine Rescue Assay; assay type: cell-based; conditions: Homo sapiens; MOLM-13 cell proliferation with 100 μM Uridine added, 72 Hours of culture
In short: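 MOLM-13 cells (passage <20) in RPMI 1640 + 10% FBS at 10^4 cells/well, treated with compound in 0.5% final DMSO for 72 h at 37 °C, 5% CO2. Viability by CellTiter-Glo luminescence. Rescue plates additionally received 100 μM uridine.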

MOLM-13 cells [2] = test: MOLM-13 Cell Proliferation Assay (indicator of DHODH inhibition); assay type: cell-based; conditions: Homo sapiens, 72 Hours of culture, CellTiter-Glo, no uridine
In short: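 Low-passage MOLM-13 cells (10^4/well) in RPMI 1640 + 10% FBS exposed to compound (0.5% DMSO final) for 72 h at 37 °C, 5% CO2. Viability read by CellTiter-Glo luminescence; growth reflects de novo pyrimidine synthesis dependent on DHODH.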

| Compound | IC50 (MOLM-13 cells [1]) [nM] | IC50 (MOLM-13 cells [2]) [nM] |
| --- | --- | --- |
| FC(F)(F)c1nc(N2CCc3c([nH]c4ccc(Cl)cc34)[C@@H]2c2ccc(N3CCOCC3)nc2)nc(C(F)(F)F)n1 [Compound 405, (1S)-2-[4,6-bis(trifluoromethyl)-1,3,5-triazin-2-yl]-6-chloro-1-[6-(morpholin-4-yl)pyridin-3-yl]-2,3,4,9-tetrahydro-1H-pyrido[3,4-b]indole] | 5880 | 0.2 |
| FC(F)(F)c1nc(N2CCc3c([nH]c4ccc(Cl)cc34)[C@@H]2c2cnc(N3CCOCC3)nc2)nc(C(F)(F)F)n1 [Compound 406, (1S)-2-[4,6-bis(trifluoromethyl)-1,3,5-triazin-2-yl]-6-chloro-1-[2-(morpholin-4-yl)pyrimidin-5-yl]-2,3,4,9-tetrahydro-1H-pyrido[3,4-b]indole] | 8350 | 0.3 |
| Cc1ccc([C@H]2c3[nH]c4ccc(Cl)cc4c3CCN2c2nc(C(F)(F)F)cc(C(F)(F)F)n2)c(F)c1F [Compound 407, (1S)-2-[4,6-bis(trifluoromethyl)pyrimidin-2-yl]-6-chloro-1-(2,3-difluoro-4-methylphenyl)-2,3,4,9-tetrahydro-1H-pyrido[3,4-b]indole] | 14700 | 0.3 |
| FC(F)(F)c1ccnc(N2CCc3c([nH]c4ccc(Cl)cc34)[C@@H]2c2cnc(N3CCOCC3)nc2)n1 [Compound 408, (1S)-6-chloro-1-[2-(morpholin-4-yl)pyrimidin-5-yl]-2-[4-(trifluoromethyl)pyrimidin-2-yl]-2,3,4,9-tetrahydro-1H-pyrido[3,4-b]indole] | 11000 | 1.2 |
| FC(F)(F)c1cc(C(F)(F)F)nc(N2CCc3c([nH]c4ccc(Cl)cc34)[C@@H]2c2ccc(N3CCOCC3)nc2)n1 [Compound 409, (1S)-2-[4,6-bis(trifluoromethyl)pyrimidin-2-yl]-6-chloro-1-[6-(morpholin-4-yl)pyridin-3-yl]-2,3,4,9-tetrahydro-1H-pyrido[3,4-b]indole] | 12600 | 0.2 |
| FC(F)(F)c1cc(C(F)(F)F)nc(N2CCc3c([nH]c4ccc(Cl)cc34)[C@@H]2c2cnc(N3CCOCC3)nc2)n1 [Compound 410, (1S)-2-[4,6-bis(trifluoromethyl)pyrimidin-2-yl]-6-chloro-1-[2-(morpholin-4-yl)pyrimidin-5-yl]-2,3,4,9-tetrahydro-1H-pyrido[3,4-b]indole] | 14200 | 0.3 |
| Cc1ccc([C@H]2c3[nH]c4ccc(Cl)cc4c3CCN2c2ncnc(C(F)(F)F)n2)cc1 [Compound 418, (1S)-6-chloro-1-(4-methylphenyl)-2-[4-(trifluoromethyl)-1,3,5-triazin-2-yl]-2,3,4,9-tetrahydro-1H-pyrido[3,4-b]indole] | 14900 | 2 |
| CN1CCN(c2ncc([C@H]3c4[nH]c5ccc(Cl)cc5c4CCN3c3nc(C(F)(F)F)cc(C(F)(F)F)n3)cn2)CC1 [Compound 419, (1S)-2-[4,6-bis(trifluoromethyl)pyrimidin-2-yl]-6-chloro-1-[2-(4-methylpiperazin-1-yl)pyrimidin-5-yl]-2,3,4,9-tetrahydro-1H-pyrido[3,4-b]indole] | 5640 | 0.5 |
| CN1CCN(c2ncc([C@H]3c4[nH]c5ccc(Cl)cc5c4CCN3c3nc(C(F)(F)F)nc(C(F)(F)F)n3)cn2)CC1 [Compound 420, (1S)-2-[4,6-bis(trifluoromethyl)-1,3,5-triazin-2-yl]-6-chloro-1-[2-(4-methylpiperazin-1-yl)pyrimidin-5-yl]-2,3,4,9-tetrahydro-1H-pyrido[3,4-b]indole] | 3120 | 0.4 |
| FC(F)(F)c1ncnc(N2CCc3c([nH]c4ccc(Cl)cc34)[C@@H]2c2cnc(N3CCOCC3)nc2)n1 [Compound 460, (1S)-6-chloro-1-[2-(morpholin-4-yl)pyrimidin-5-yl]-2-[4-(trifluoromethyl)-1,3,5-triazin-2-yl]-2,3,4,9-tetrahydro-1H-pyrido[3,4-b]indole] | 1160 | 1.3 |
| FC(F)(F)c1ncnc(N2CCc3c([nH]c4ccc(Cl)cc34)[C@@H]2c2ccc(N3CCOCC3)nc2)n1 [Compound 462, (1S)-6-chloro-1-[6-(morpholin-4-yl)pyridin-3-yl]-2-[4-(trifluoromethyl)-1,3,5-triazin-2-yl]-2,3,4,9-tetrahydro-1H-pyrido[3,4-b]indole] | 13600 | 1.3 |
